Test results reported in patent US6645736B2, “Calcium independent cytosolic phospholipase A2/B enzymes” (Genetics Institute, LLC, priority 1994, dated 2003).

Columns and labels:
[1] = target: T1, calcium independent cytosolic phospholipase A2/B (Cricetulus griseus, UniProt A0A3L7I2I8); assay: Phospholipase hydrolysis assays, format not specified; assay type: biochemical, Chinese hamster
T1 construct: purified from the cytosol of Chinese hamster ovary (CHO) cells; endogenous in cells; host or cells: CHO cells (cytosol; Mono P / heparin / size-exclusion fractions)
T1 sequence (A0A3L7I2I8 1-752 isoform A0A3L7I2I8-2): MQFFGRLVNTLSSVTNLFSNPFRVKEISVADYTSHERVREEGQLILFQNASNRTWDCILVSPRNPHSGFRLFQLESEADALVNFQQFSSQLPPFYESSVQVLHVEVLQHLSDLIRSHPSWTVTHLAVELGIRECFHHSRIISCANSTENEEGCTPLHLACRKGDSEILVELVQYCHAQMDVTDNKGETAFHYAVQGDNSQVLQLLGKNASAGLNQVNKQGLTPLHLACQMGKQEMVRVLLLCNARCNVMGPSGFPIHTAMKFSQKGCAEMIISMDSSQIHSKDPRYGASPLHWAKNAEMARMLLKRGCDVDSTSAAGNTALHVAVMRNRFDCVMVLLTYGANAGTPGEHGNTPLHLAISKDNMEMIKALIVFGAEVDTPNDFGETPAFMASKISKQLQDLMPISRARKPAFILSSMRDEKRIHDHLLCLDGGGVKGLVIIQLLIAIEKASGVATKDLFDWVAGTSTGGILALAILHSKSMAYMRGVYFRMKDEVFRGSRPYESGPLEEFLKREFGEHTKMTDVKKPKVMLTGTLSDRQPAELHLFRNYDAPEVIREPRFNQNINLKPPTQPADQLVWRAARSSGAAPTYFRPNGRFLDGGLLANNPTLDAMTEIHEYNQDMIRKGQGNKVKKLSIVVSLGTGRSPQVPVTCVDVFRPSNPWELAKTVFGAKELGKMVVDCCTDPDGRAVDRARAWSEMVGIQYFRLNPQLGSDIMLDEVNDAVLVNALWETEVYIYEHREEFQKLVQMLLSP
Protocol: 1. sn-2 Hydrolysis Assays
(§1) A) Liposome: The lipid, e.g. 1-palmitoyl-2-[^14C]arachidonyl-sn-glycero-3-phosphocholine (PAPC), 55 mCi/mmol, was dried under a stream of nitrogen and solubilized in ethanol. The assay buffer contained 100 mM Tris-HCl pH 7, 4 mM EDTA, 4 mM EGTA, 10% glycerol and 25 μM of labelled PAPC, where the volume of ethanol added was no more than 10% of the final assay volume. The reaction was incubated for 30 minutes at 37° C. and quenched by the addition of two volumes of heptane:isopropanol:0.5M sulfuric acid (105:20:1 v/v). Half of the organic was applied to a disposable silica gel column in a vacuum manifold positioned over a scintillation vial, and the free arachidonic was eluted by the addition of ethyl ether (1 ml). The level of radioactivity was measured by liquid scintillation.
B) Mixed Micelle Basic: The lipid was dried down as in (A) and to this was added the assay buffer consisting of 80 mM glycine pH 9, 5 mM CaCl2 or 5 mM EDTA, 10% or 70% glycerol and […] triton X-100. The mixture was then sonicated for 30-60 seconds at 4° C. to form mixed micelles.
C) Mixed Micelle Neutral: As for (B) except 100 mM Tris-HCl pH 7 was used instead of glycine as the buffer.
Sn-1 hydrolysis assays are performed as described above for […], but using phospholipids labelled at the sn-1 substituent, e.g. 1-[^14C]-palmitoyl-2-arachidonyl-sn-glycero-3-phophocholine.

[2] = target: T1, calcium independent cytosolic phospholipase A2/B; assay: Liposome assay (Example 3A); assay type: biochemical, Chinese hamster; conditions: assay of Example 3A (liposome)
Protocol: as §1, with “The reaction was incubated for 30 minutes at 37° C. and quenched by the addition of two volumes of heptane:isopropanol:0.5M sulfuric acid (105:20:1 v/v).” left out
Variations on this assay replace EDTA and EGTA with 10 mM CaCl2.

[3] = target: T2, cPLA2 (Homo sapiens, UniProt P47712); conditions: comparison enzyme; cited from earlier work
T2 sequence (P47712 1-749): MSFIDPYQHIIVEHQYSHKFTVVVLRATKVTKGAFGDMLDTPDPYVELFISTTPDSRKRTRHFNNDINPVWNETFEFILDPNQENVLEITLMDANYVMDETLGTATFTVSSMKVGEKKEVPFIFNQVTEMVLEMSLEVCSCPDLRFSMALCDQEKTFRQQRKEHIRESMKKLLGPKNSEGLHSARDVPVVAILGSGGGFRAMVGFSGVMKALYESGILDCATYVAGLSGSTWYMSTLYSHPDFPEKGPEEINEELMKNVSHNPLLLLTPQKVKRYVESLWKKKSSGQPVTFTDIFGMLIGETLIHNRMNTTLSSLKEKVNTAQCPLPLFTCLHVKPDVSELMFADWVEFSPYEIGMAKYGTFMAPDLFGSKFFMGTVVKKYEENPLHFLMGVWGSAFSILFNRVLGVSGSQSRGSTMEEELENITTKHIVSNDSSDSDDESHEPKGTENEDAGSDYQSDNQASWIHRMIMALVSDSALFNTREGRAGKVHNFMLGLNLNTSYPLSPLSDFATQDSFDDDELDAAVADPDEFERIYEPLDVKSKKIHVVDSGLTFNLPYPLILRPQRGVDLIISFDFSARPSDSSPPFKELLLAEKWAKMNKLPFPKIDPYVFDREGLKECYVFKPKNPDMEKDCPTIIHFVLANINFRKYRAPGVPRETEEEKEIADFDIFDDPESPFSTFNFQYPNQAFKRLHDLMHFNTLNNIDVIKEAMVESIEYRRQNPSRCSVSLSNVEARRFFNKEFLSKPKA

## C[C@H](CCC(=O)NCCC[N+](C)(C)CCCS(=O)(=O)[O-])[C@H]1CC[C@H]2[C@@H]3[C@H](O)C[C@@H]4C[C@H](O)CC[C@]4(C)[C@H]3C[C@H](O)[C@]12C [CHAPS]
[1]
  inactivation of the enzyme by detergents: inactivated

## Nc1ncnc2c1ncn2[C@@H]1O[C@H](COP(=O)(O)OP(=O)(O)OP(=O)(O)O)[C@@H](O)[C@H]1O [adenosine triphosphate]
[2]
  effect on enzyme activity: not stimulated

## [Ca+2] [calcium]
[1]; in all assays
  effect on enzyme activity: suppressed

## CCCCCCCCO[C@@H]1O[C@H](CO)[C@@H](O)[C@H](O)[C@H]1O [octyl glucoside]
[1]
  inactivation of the enzyme by detergents: inactivated

## NC(N)=O [urea]
[1]; high concentration denaturants
  denaturant concentration that inactivates the enzyme: above 3 M

## triton X-100
[2]
  effect on enzyme activity: suppressed

B1: calcium independent phospholipase: 86 kD calcium independent cytosolic phospholipase enzyme purified from the cytosol of CHO cells, SEQ ID NO:2 (protein)
chain: T1 sequence (A0A3L7I2I8 1-752 isoform A0A3L7I2I8-2)
[1]
  pH optimum: 6
[1]; PAPC with either palmitoyl or arachidonyl labelled with 14C
  initial rate of hydrolysis, sn-2 position higher than sn-1: 2-3 fold

B2: cPLA2: 110 kD calcium dependent cytosolic phospholipase A2 of U.S. Pat. No. 5,322,776 (protein, UniProt P47712 1-749, looked up)
Cytosolic phospholipase A2: T2 sequence (P47712 1-749)
[3]
  pH optimum: greater than 8
